From patent publication US11845773B2, “Trehalose analogues” (Central Michigan University, priority 2016, dated 2023)

Legend:
Msmeg [1] = test: Metabolic labeling of Msmeg with TMM reporters 1-6 (CuAAC, SPAAC, tetrazine ligation or one-step); details: 4 h; for concentration of labeling saturation: Msmeg and Cglut, range up to 250 μM, flow cytometry (FIG. 62)
Ag85 = test: Effect of ebselen on AlkTMM labeling in Msmeg (Ag85 dependency); type: cell-based, Mycobacterium smegmatis; details: ebselen 50 μg/mL 8 h; for decrease of labeling upon treatment of Msmeg with ebselen: then reporter 4 h (O-AlkTMM 50 μM; N-AlkTMM 100 μM)
Description: Effect of ebselen on AlkTMM labeling in Msmeg. Msmeg was cultured in 7H9 liquid medium in 96-well plates in the presence of ebselen (50 μg/mL) for 8 hours, after which the chemical reporter (O-AlkTMM, 50 μM; N-AlkTMM, 100 μM; 6-TreAz, 25 μM) was added and the cells were incubated for another 4 hours. Cells were subjected to CuAAC and analyzed by flow cytometry as described above.

[2] = system: Msmeg PG-AGM and extractable lipids fractions; test: Cellular fractionation and fluorescence analysis of labeled Msmeg; type: cell-based, Mycobacterium smegmatis; details: for distribution of fluorescence between PG-AGM and extractable lipids fractions: Msmeg 4 h, O-AlkTMM 50 μM, N-AlkTMM 250 μm, 6-TreAz 25 μM, CHCl3/CH3OH extraction
Description: Cellular fractionation and analysis of labeled Msmeg. 10 mL Msmeg cultures were grown in 7H9 liquid medium in the presence of O-AlkTMM (50 μM), N-AlkTMM (250 μm) or left untreated in 15 mL conical tubes. A higher concentration of N-AlkTMM was used to maximize labeling efficiency. In parallel, cultures were grown in the presence of 6-TreAz (25 μM) or left […] untreated. Cells were incubated with shaking for 4 h at 37° C. until reaching late-log phase, then pelleted by centrifugation and washed with PBSB three times as described above. For O- and N-AlkTMM-labeled cells and their untreated control, the above-described click chemistry procedure was carried out with Az488 at a reaction volume of 500 μL. For 6-TreAz-labeled cells and their untreated control, the above-described click chemistry procedure was carried out with Alk488 at a reaction volume of 500 μL. After the click reactions, cells were pelleted by centrifugation and washed with PBSB three times as described above. Aliquots were removed and resuspended in PBS 1× for measurement of OD600 (for normalization of fluorescence values) and analysis by flow cytometry as shown in FIG. 13. The remainder of the cells were resuspended in 1 mL HPLC grade CH3OH and transferred to a glass screw-cap culture tube containing 2 mL CHCl3 and equipped with a stir bar. The CHCl3/CH3OH (2:1) cell suspension was stirred overnight to accomplish separation of the soluble extractable lipids from the insoluble PG-AGM material. The insoluble material was pelleted by centrifugation (3,600 rpm, 10 minutes, room temperature) and washed two times with CHCl3/CH3OH (2:1). The CHCl3/CH3OH (2:1) supernatants containing soluble extractable lipids were combined in a 20 mL glass scintillation vial and dried by rotary evaporation. Both fractions were subjected to TLC analysis as described in FIG. 12 to confirm separation of the extractable lipids from the PG-AGM material. Both fractions were then resuspended in 1 mL 5% aqueous tetrabutylammonium hydroxide (TBAH) in glass screw-cap culture tubes, sealed and then stirred overnight at 100° C. to saponify and solubilize the samples. Next, the samples were cooled to room temperature and 200 μL aliquots were transferred to a black flat-bottom 96-well plate.

Escherichia coli = test: AlkTMM labeling specificity, E. coli; type: cell-based; details: species specificity, flow cytometry and microscopy
Msmeg [3] = test: Competition of AlkTMM labeling in Msmeg with unlabeled probes; type: cell-based, Mycobacterium smegmatis; details: competitor 250, 1000, 5000 μM, 4 h; O-AlkTMM 50 μM with O—C7TMM, N-AlkTMM 100 μM with N—C7TMM
Description: Competition of AlkTMM labeling in Msmeg. For O-AlkTMM competition experiments, Msmeg was cultured in 7H9 liquid medium in 96-well plates in the presence of O-AlkTMM (50 μM) and its unlabeled version, O—C7TMM, at concentrations of 250, 1000, and 5000 μM (or without competitor) for 4 h. For N-AlkTMM competition experiments, Msmeg was cultured in 7H9 liquid medium in the presence of N-AlkTMM (100 μM) and its unlabeled version, […], at concentrations of 250, 1000, and 5000 μM (or without competitor) for 4 h. Cells were subjected to CuAAC and analyzed by flow cytometry as described above.

[4] = system: SugABC-LpqY trehalose transporter; test: Labeling in Msmeg wild type versus Msmeg ΔsugC; type: cell-based, Mycobacterium smegmatis; details: Msmeg wild type vs ΔsugC
[5] = system: M. smegmatis mc2155 (Msmeg); test: Metabolic labeling of Msmeg with AlkTMM probes, CuAAC with Az488, flow cytometry / microscopy; type: cell-based, Mycobacterium smegmatis; set-up: concentration at which labeling was saturable: unit not given here; details: for labeling after only a few seconds of culture time / labeling features in time-course fluorescence microscopy: Msmeg; for change in labeling between log- and stationary-phase Msmeg: growth phase dependence; for labeling of Msmeg: species specificity, flow cytometry and microscopy
C. glutamicum = test: AlkTMM labeling specificity, C. glutamicum; type: cell-based, Corynebacterium glutamicum; details: species specificity, flow cytometry and microscopy
Bacillus subtilis = test: AlkTMM labeling specificity, B. subtilis; type: cell-based; details: species specificity, flow cytometry and microscopy
Msmeg [6] = test: Growth of Msmeg during treatment with probes; type: cell-based, Mycobacterium smegmatis; details: up to 250 μM
Description: Plates were incubated at 37° C. […] Tubes were incubated at 37° C.

[7] = Water solubility of reporters
Cglut = test: Metabolic labeling of Cglut with TMM reporters 4-6; details: flow cytometry

6-O-(10-undecynoyl)-α,α-D-trehalose [O-AlkTMM-C11]
dependence of labeling on acyl chain length (Msmeg [1]; Msmeg, 50 μM reporter, azido-488 CuAAC, flow cytometry): small increase

[N-]=[N+]=NC[C@H]1O[C@H](O[C@H]2O[C@H](CO)[C@@H](O)[C@H](O)[C@H]2O)[C@H](O)[C@@H](O)[C@@H]1O [6-TreAz, reference compound]
effect of ebselen treatment on Msmeg labeling (Ag85; then 6-TreAz 25 μM 4 h): did not reduce
distribution of fluorescence between PG-AGM and extractable lipids fractions [2]: signal exclusively in the extractable lipids fraction

C#CCCCCC(=O)NCC1O[C@H](O[C@H]2OC(CO)[C@@H](O)C(O)[C@H]2O)C(O)[C@@H](O)[C@@H]1O (stereo partly drawn) [N-AlkTMM, N-(6-heptynoyl)-6-amino-6-deoxy-α,α-D-trehalose]
labeling of E. coli (Escherichia coli): no labeling above background
competition of labeling signal by unlabeled version of the probe (Msmeg [3]): Dose-dependent competition of signal
dependence of incorporation on trehalose transporter SugABC-LpqY [4]: not dependent on the trehalose transporter SugABC-LpqY
labeling after only a few seconds of culture time [5]: significant labeling could be detected
labeling features in time-course fluorescence microscopy [5]: intensely fluorescent septa in dividing cells, highly polar labeling for short pulses, and diffuse surface labeling for longer pulses
S/N reached under the conditions tested ([5]; Msmeg 14 h, 1-250 μm probe, Az488 CuAAC, flow cytometry): > 150
signal lower than O-AlkTMM at the same concentrations ([5]; Msmeg 14 h, flow cytometry): approximately 10 fold
change in labeling between log- and stationary-phase Msmeg [5]: significant decrease
labeling of Msmeg [5]: strong labeling of the cell surface
decrease of labeling upon treatment of Msmeg with ebselen (Ag85): ~85%
labeling of C. glutamicum (C. glutamicum): strong labeling of the cell surface
labeling of B. subtilis (Bacillus subtilis): no labeling above background
distribution of fluorescence between PG-AGM and extractable lipids fractions [2]: signal only in the extractable lipids fraction
growth impairment of Msmeg (Msmeg [6]): no growth impairment

C#CCCCCC(=O)OCC1O[C@H](O[C@H]2OC(CO)[C@@H](O)C(O)[C@H]2O)C(O)[C@@H](O)[C@@H]1O (stereo partly drawn) [O-AlkTMM, 6-O-(6-heptynoyl)-α,α-D-trehalose]
water solubility [7]: conveniently water-soluble
labeling of E. coli (Escherichia coli): no labeling above background
competition of labeling signal by unlabeled version of the probe (Msmeg [3]): Dose-dependent competition of signal
dependence of incorporation on trehalose transporter SugABC-LpqY [4]: not dependent on the trehalose transporter SugABC-LpqY
labeling after only a few seconds of culture time [5]: significant labeling could be detected
labeling features in time-course fluorescence microscopy [5]: intensely fluorescent septa in dividing cells, highly polar labeling for short pulses, and diffuse surface labeling for longer pulses
concentration at which labeling was saturable ([5]; Msmeg 14 h, Az488 CuAAC, flow cytometry): 50
signal-to-noise ratio (S/N) of labeling ([5]; Msmeg cultured 14 h, Az488 CuAAC, flow cytometry): > 20
change in labeling between log- and stationary-phase Msmeg [5]: significant decrease
labeling of Msmeg [5]: strong labeling of the cell surface
decrease of labeling upon treatment of Msmeg with ebselen (Ag85): approximately 70%
labeling of C. glutamicum (C. glutamicum): strong labeling of the cell surface
labeling of B. subtilis (Bacillus subtilis): no labeling above background
distribution of fluorescence between PG-AGM and extractable lipids fractions [2]: nearly all of the fluorescence from O-AlkTMM treated Msmeg was present in the PG-AGM fraction
fraction of probe reacting with TMM to form alkyne-labeled TDM ([2]; estimated from extractable lipids fluorescence, FIG. 7): ≤ 10%
growth impairment of Msmeg (Msmeg [6]): no growth impairment

C#CCCC(=O)OCC1O[C@H](O[C@H]2OC(CO)[C@@H](O)C(O)C2O)C(O)C(O)[C@@H]1O (stereo partly drawn) [O-AlkTMM-C5, 6-O-(4-pentynoyl)-α,α-D-trehalose]
water solubility [7]: conveniently water-soluble

[N-]=[N+]=NCCCCCCCCCC(=O)OCC1O[C@H](O[C@H]2OC(CO)[C@@H](O)C(O)C2O)C(O)C(O)[C@@H]1O (stereo partly drawn) [O-AzTMM-C10, 6-O-(10-azidodecanoyl)-α,α-D-trehalose]
concentration of labeling saturation (Msmeg [1]): approximately 25 μM

O=C(CCCCCCCCCNC(=S)Nc1ccc2c(c1)C(=O)OC21c2ccc(O)cc2Oc2cc(O)ccc21)OC[C@H]1O[C@H](O[C@H]2O[C@H](CO)[C@@H](O)[C@H](O)[C@H]2O)[C@H](O)[C@@H](O)[C@@H]1O [O-FITC-TMM, 6-O-(10-[(fluorescein-5-yl)thioureido]decanoyl)-α,α-D-trehalose]
concentration of labeling saturation (Msmeg [1]): ≥ 100 µM
incorporation into Cglut relative to Msmeg (Cglut): much more efficiently than in Msmeg

O=C(CCCCCCCCCNC(=O)OC1CC/C=C/CCC1)OC[C@H]1O[C@H](O[C@H]2O[C@H](CO)[C@@H](O)[C@H](O)[C@H]2O)[C@H](O)[C@@H](O)[C@@H]1O (stereo partly drawn) [O-TCO-TMM, 6-O-(10-{N—[(E)-cylcooct-4-en1yloxy]carbonyl}aminodecanoyl)-α,α-D-trehalose]
concentration of labeling saturation (Msmeg [1]): approximately 25 μM
incorporation into Cglut relative to Msmeg (Cglut): much more efficiently than in Msmeg
